Laboratory results as given in US10537561B2 (Novartis AG, priority 2011, dated 2020).
Values belong to the compound of their own block, whether it stands above or below them.

Assays:
PDGFR-β = PDGFR-β (Homo sapiens, UniProt P09619); experiment: PDGFR-β inhibition; type: biochemical; details: read-out: PDGFR-β IC-50
CSF-1R = CSF-1R (Homo sapiens, UniProt P07333); experiment: CSF-1R inhibition, biochemical assay
[1] = test system: several hundred kinases in the Ambit kinase array; experiment: Ambit kinase array screen; type: binding; details: lower than 50% only against CSF-1R, PDGFRα and PDGFRβ
[2] = test system: mouse GBM cell cultures (GBM1-4); experiment: Mouse glioma cell line proliferation (MTT); type: cell-based
Procedure: (§1) For neurosphere formation the cell pellet was resuspended in neurosphere media consisting of mouse NSC Basal Media, NSC proliferation supplements, 10 ng/ml EGF, 20 ng/ml basic-FGF and 1 mg/ml Heparin (Stem Cell Technologies). Fresh media was added every 72 hours for 2 weeks. Primary neurospheres were collected, mechanically disaggregated to a single cell suspension and propagated by serial passaging. To generate glioma cell lines, secondary neurospheres were dissociated to single cell suspensions and cultivated in DMEM+10% FBS as a monolayer. Multiple glioma cell lines were derived from independent mice, denoted GBM1-4 herein. Glioma cells were infected with a pBabe-H2B-mCherry construct as described previously (O. Florey, et al., Nat Cell Biol 13, 1335 (2011)).
(§2) Cell growth rate was determined using the MTT cell proliferation kit (Roche). […] Media was changed every 48 hours. BMDM and CRL-2467 cells were supplemented with 10 ng/ml and 30 ng/ml recombinant mouse CSF-1 respectively unless otherwise indicated. 10 μl of MTT labeling reagent was added to each well and then incubated for 4 hours at 37° C., followed by the addition of 100 μl MTT solubilization reagent overnight. The mixture was gently resuspended and absorbance was measured at 595 nm and 750 nm on a spectraMax 340pc plate reader (Molecular Devices).

[3] = test system: CSF-dependent cell proliferation; experiment: CSF-dependent cell proliferation; type: cell-based; details: read-out: CSF-dependent cell proliferation IC-50
[4] = test system: Bone marrow-derived macrophages (BMDMs); experiment: BMDM proliferation/survival (MTT); type: cell-based, mouse
Procedure: as §2

[5] = test system: glioma in RCAS-PDGF-B-HA/Nestin-Tv-a; Ink4a/Arf−/− mice; experiment: Histologic analyses of tumors from short-term trial; type: in vivo, mouse; details: for Apoptosis (% CC3+) / Macrophages (% CD68+) / Total DAPI+ Cells / Tumor Cells (% Olig2+) / Phagocytic Capacity / Vasculature (CD31 MVD): vs vehicle
Procedure: The analyses were performed on tissues from the short-term trial (see Example 5), so that tumors from the different treatment groups could be compared at the same defined endpoint. Tumor cell density was examined using the oligodendrocyte marker Olig2, which has previously been used to identify glioma cells. […] (FIG. 6A).
To isolate tissues for snap freezing in liquid nitrogen, mice were euthanized by carbon dioxide asphyxiation or fully anesthetized with avertin (2,2,2-tribromoethanol, Sigma) and cervically dislocated prior to tissue harvest. For flow cytometry, mice were fully anesthetized with avertin and transcardially perfused with 20 ml of PBS. The brain was then isolated and the tumor macrodissected from the surrounding normal tissue. For proliferation analysis, mice were injected intraperitoneally with […] of bromodeoxyuridine (BrdU; Sigma) 2 hours prior to sacrifice. To isolate tissues for frozen histology, mice were fully anesthetized with avertin, transcardially perfused with 10 ml of PBS, followed by 10 ml of 4% paraformaldehyde in PBS (PFA). The brain was postfixed in PFA overnight at 4° C. while other tissues were cryopreserved in 30% sucrose at 4° C. After post-fixation, the brain was then transferred to 30% sucrose and incubated at 4° C. until the brain was fully equilibrated and sank to the bottom of the tube (typically 2 to 3 days). All tissues were then embedded in OCT (Tissue-Tek) and 10 μm cryostat tissue sections were used for all subsequent analysis.
For immunofluorescence, 10 μm thick frozen sections were thawed and dried at room temperature and then washed in PBS. For the standard staining protocol, tissue sections were blocked in 0.5% PNB in PBS for at least 1 hour at room temperature or up to overnight at 4° C., followed by incubation in primary antibody in 0.25% PNB for 2 hours at room temperature or overnight at 4° C. Sections were then washed in PBS and incubated with the appropriate fluorophore-conjugated secondary antibody (Molecular Probes) at a dilution 1:500 in 0.25% PNB for 1 hour at room temperature. After washing in PBS, tissue sections were counterstained with DAPI (5 mg/ml stock diluted 1:5000 in PBS) for 5 minutes prior to mounting with ProLong Gold Antifade mounting media (Invitrogen).
For angiogenesis and proliferation analysis, tissue sections were first subjected to citrate buffer based antigen retrieval by submerging in antigen unmasking solution (0.94% v/v in distilled water; Vector Laboratories) and microwaving for 10 minutes on half power, followed by cooling to room temperature for at least 30 minutes. For angiogenesis analysis, tissues were then washed in PBS and blocked with mouse Ig blocking reagent (Vector Laboratories) according to the manufacturer's instructions for 1 hour at room temperature. For proliferation analysis, after antigen retrieval, tissue sections were incubated with 2M HCl for 15 minutes at room temperature to denature DNA and then in neutralizing 0.1M sodium borate buffer (pH 8.5) for 5 minutes. After PBS washes, the rest of the staining was performed according to the standard protocol.
For staining for phagocytosis analysis, 10 μm thick frozen sections were thawed and dried at room temperature and then washed in PBS. Tissue sections were blocked in 0.5% PNB in PBS for at least 1 hour at room temperature, followed by incubation in rabbit anti-cleaved caspase-3 primary antibody diluted 1:500 in 0.5% PNB overnight at 4° C. The next day, slides were washed 6 times for 5 minutes in PBS prior to incubation with goat-anti-rabbit Alexa568 secondary antibody (1:500 in 0.5% PNB) for 1 hour at room temperature. Tissue sections were then washed 6 times for 5 minutes in PBS and blocked overnight at 4° C. in a new buffer of 5% donkey serum, 3% bovine serum albumin, and 0.5% PNB in PBS. […]

[6] = test system: glioma in RCAS-PDGF-B-HA/Nestin-Tv-a; Ink4a/Arf−/− mice; experiment: Short-term trial, tumor volume by MRI; type: in vivo, mouse
Procedure: Tumor volume in the RCAS-PDGF-B-HA/Nestin-Tv-a; Ink4a/Arf^−/− mice was determined by MRI, and mice were added to the trial when this was at least 4.5 mm^3 or greater. […] MRI scans were performed on the day before treatment was initiated, at the mid-point of the treatment, and at the day before the end of the trial period.
The vehicle control, 20% captisol, was processed in the same manner.
To determine tumor volume, regions of interest (ROI) were circumscribed on T2 weighted images and their corresponding area in mm^2 was multiplied by the slice height of 0.7 mm. The total tumor volume is the sum of the ROI volume in each slice, and the volume for the first and last slice in which the tumor appear is halved to approximate the volume of a trapezoid. When tumor volume was in the range of 4.5-40 mm^3, animals were randomly assigned to treatment groups. […] A size-matched vehicle treated cohort was not included for this cohort having the larger starting tumor burden because these mice would not have been able to survive to the trial endpoint.

[7] = test system: glioma in RCAS-PDGF-B-HA/Nestin-Tv-a; Ink4a/Arf−/− mice; experiment: Long-term survival trial in glioma model; type: in vivo, mouse
[8] = test system: neurospheres derived from mouse RCAS-PDGF-B-HA/Nestin-Tv-a; Ink4a/Arf−/− GBMs; experiment: Secondary neurosphere formation assay; type: cell-based
Procedure: as §1
Media was changed every 48 hours. Secondary neurosphere formation was assayed by counting the number of neurospheres obtained after 2 weeks.

[9] = molecular target: >200 miscellaneous kinases; experiment: Kinase selectivity panel; type: biochemical; details: read-out: IC50 values for most of >200 miscellaneous kinases

Sequence of CSF-1R (P07333 20-972, species assumed): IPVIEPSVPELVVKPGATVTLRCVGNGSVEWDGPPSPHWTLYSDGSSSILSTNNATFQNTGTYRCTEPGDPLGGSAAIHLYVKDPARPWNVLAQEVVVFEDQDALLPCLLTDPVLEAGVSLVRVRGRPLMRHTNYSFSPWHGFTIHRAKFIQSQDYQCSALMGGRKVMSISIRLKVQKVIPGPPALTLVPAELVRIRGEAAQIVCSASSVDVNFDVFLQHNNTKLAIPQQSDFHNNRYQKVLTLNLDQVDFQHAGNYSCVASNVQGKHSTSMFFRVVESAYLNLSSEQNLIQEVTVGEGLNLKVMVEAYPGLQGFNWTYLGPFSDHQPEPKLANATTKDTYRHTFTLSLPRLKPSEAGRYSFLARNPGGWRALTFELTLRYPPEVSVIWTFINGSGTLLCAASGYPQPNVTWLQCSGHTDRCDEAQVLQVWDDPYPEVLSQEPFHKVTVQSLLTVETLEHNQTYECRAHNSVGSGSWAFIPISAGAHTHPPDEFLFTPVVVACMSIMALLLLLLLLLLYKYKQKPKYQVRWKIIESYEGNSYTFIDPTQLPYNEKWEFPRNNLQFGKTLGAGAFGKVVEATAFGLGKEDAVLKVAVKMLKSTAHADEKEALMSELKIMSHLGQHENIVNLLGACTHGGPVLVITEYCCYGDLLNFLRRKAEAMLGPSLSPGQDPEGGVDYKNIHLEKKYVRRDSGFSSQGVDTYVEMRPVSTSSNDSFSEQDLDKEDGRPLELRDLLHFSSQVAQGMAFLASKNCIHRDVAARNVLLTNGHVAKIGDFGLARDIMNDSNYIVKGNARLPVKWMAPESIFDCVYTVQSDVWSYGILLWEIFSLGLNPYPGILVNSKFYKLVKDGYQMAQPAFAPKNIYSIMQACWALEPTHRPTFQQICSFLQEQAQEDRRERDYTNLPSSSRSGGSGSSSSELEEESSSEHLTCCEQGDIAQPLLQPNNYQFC
Sequence of PDGFR-β (P09619 33-1106, species assumed): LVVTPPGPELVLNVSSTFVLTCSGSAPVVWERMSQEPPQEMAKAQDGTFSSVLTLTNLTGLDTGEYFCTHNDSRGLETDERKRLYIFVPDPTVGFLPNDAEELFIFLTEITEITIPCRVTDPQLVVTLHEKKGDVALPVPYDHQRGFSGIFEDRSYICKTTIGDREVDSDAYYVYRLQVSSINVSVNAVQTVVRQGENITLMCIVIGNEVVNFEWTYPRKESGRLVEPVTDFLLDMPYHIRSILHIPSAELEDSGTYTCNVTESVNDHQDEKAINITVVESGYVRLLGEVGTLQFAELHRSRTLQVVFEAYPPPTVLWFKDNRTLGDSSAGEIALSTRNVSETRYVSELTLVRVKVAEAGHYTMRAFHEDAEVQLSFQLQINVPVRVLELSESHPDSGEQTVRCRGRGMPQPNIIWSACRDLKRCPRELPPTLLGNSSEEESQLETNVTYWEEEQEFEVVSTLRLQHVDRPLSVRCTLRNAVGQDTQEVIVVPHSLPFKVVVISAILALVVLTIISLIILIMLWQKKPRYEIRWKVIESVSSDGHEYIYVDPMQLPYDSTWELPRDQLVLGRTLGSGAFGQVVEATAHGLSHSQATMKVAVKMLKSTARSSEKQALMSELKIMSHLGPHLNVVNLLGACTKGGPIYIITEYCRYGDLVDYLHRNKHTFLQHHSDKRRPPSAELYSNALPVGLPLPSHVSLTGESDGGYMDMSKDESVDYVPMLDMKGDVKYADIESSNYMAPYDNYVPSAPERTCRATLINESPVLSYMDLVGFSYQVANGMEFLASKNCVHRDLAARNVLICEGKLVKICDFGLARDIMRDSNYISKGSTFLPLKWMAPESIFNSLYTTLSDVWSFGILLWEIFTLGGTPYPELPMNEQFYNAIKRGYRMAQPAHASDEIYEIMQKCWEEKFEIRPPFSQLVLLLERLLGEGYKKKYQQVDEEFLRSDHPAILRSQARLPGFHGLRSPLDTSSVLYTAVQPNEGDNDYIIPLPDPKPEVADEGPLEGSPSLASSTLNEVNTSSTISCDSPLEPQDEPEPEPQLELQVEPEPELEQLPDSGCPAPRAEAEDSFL

IC50 (PDGFR-β): 7.7 µM
IC50 (CSF-1R): 0.008 µM
SMILES: CCCNC(=O)c1cc(Oc2ccc3nc(N[C@@H]4CCCC[C@H]4O)sc3c2)ccn1

IC50 (PDGFR-β): 1.7 µM
IC50 (CSF-1R): 0.003 µM
SMILES: CCn1cc(-c2cc(Oc3ccc4nc(N[C@@H]5CCCC[C@H]5O)sc4c3)ccn2)cn1

SMILES: CNC(=O)c1cc(Oc2ccc3nc(N[C@@H]4CCCC[C@H]4O)sc3c2)ccn1 [BLZ945]
activity in Ambit kinase array [1]: lower than 50 % of control
effects on tumor cell lines established from secondary mouse GBM neurospheres [2]: no differences
IC50 [3]: ~0.067 µM
rate of population doubling of BMDM cells ([4]; 67 nM): same effect on this rate as absence of CSF-1 stimulation
macrophage survival ([4]; 67 nM to 6700 nM, wild-type BMDMs): dramatically blocked macrophage survival
Apoptosis (% CC3+) ([5]; BLZ945, Day 3): +17-fold
Macrophages (% CD68+) ([5]; BLZ945, Day 3): +3-fold
Total DAPI+ Cells ([5]; BLZ945, Day 3): −72%
Tumor Cells (% Olig2+) ([5]; BLZ945, Day 3): −27%
Apoptosis (% CC3+) ([5]; BLZ945, Day 7): +6-fold
Macrophages (% CD68+) ([5]; BLZ945, Day 7): +2-fold
Phagocytic Capacity ([5]; BLZ945, Day 7): +5.0-fold
Total DAPI+ Cells ([5]; BLZ945, Day 7): −80%
Tumor Cells (% Olig2+) ([5]; BLZ945, Day 7): −77%
Vasculature (CD31 MVD) ([5]; BLZ945, Day 7): −17%
Apoptosis (% CC3+) ([5]; BLZ945 Large, Day 3): +9-fold
Macrophages (% CD68+) ([5]; BLZ945 Large, Day 3): +2-fold
Phagocytic Capacity ([5]; BLZ945 Large, Day 3): +7.1-fold
Total DAPI+ Cells ([5]; BLZ945 Large, Day 3): −40%
Tumor Cells (% Olig2+) ([5]; BLZ945 Large, Day 3): −14%
Apoptosis (% CC3+) ([5]; BLZ945 Large, Day 7): +2-fold
Macrophages (% CD68+) ([5]; BLZ945 Large, Day 7): +4-fold
Phagocytic Capacity ([5]; BLZ945 Large, Day 7): +6.0-fold
Total DAPI+ Cells ([5]; BLZ945 Large, Day 7): −65%
Tumor Cells (% Olig2+) ([5]; BLZ945 Large, Day 7): −73%
Vasculature (CD31 MVD) ([5]; BLZ945 Large, Day 7): −67%
level of apoptosis (CC3+) ([5]; earlier time point in particular): increase in apoptosis
Olig2 (tumor cell density) ([5]; vs vehicle controls): significantly reduced
treated animals with reduced tumor size ([6]; 6 days of dosing): 7 of 11
treated animals with tumor volume increases over 50% ([6]; 6 days, of 11 animals): two
tumor size by MRI ([6]; 7 day trial): no increase in tumor size
Tumor Volume (Day −1 vs Day 6) ([6]; BLZ945, Day 7, tumors 4.5-40 mm^3): +0.68%
treated mice with reduction of at least 30% in tumor size ([6]; large tumor cohort 48.7 to 132 mm^3, 6 days): 6 of 18
tumor volume change ([6]; large tumor cohort, 6 days): decreased in nearly all test animals
treated cohort still alive (symptom-free survival) at trial endpoint ([7]; 200 mg/kg oral gavage daily, 26 weeks post-injection): 64.4%
mice with grade II glioma among 4 treated mice sacrificed for histology ([7]; 12 weeks, of 4 mice): one
tumor free mice among 4 treated mice sacrificed for histology ([7]; 12 weeks, of 4 mice): 3
treated animals either Grade II or tumor free ([7]; long-term trial): 80%
treated animals with Grade III tumor ([7]; long-term trial): 20%
tumor malignancy vs vehicle ([7]; long-term trial): significantly less malignant tumors
mice with no detectable lesions ([7]; mice alive at 26-week trial endpoint): 56%
formation of secondary neurospheres [8]: not altered
total number and size of neurospheres ([8]; 670 nM): unaffected
IC50 [9]: > 10 µM

IC50 (PDGFR-β): 13.9 µM
IC50 (CSF-1R): 0.006 µM
SMILES: CCNC(=O)c1cc(Oc2ccc3nc(N[C@@H]4CCCC[C@H]4O)sc3c2)ccn1 [Ig-B]

IC50 (PDGFR-β): 0.74 µM
IC50 (CSF-1R): 0.0009 µM
SMILES: Cn1cc(-c2cc(Oc3ccc4nc(N[C@@H]5CCCC[C@H]5O)sc4c3)ccn2)cn1 [Ih-A]

IC50 (PDGFR-β): 1.5 µM
IC50 (CSF-1R): 0.007 µM
SMILES: CCCn1cc(-c2cc(Oc3ccc4nc(N[C@@H]5CCCC[C@H]5O)sc4c3)ccn2)cn1 [Ih-C]

IC50 (PDGFR-β): 0.02 µM
IC50 (CSF-1R): 0.001 µM
SMILES: Cn1cc(-c2cc(Oc3ccc4nc(N[C@H]5CCCC[C@@H]5O)sc4c3)ccn2)cn1 [Ih-D]
